Test [1] relates to E. coli K12 strain MG1655 stationary phase cells. Description: Potentiation assays on stationary phase cultures (metabolites / oxygen plus antibiotic, CFU/mL). The format is cell-based, Escherichia coli. Particulars: for killing of stationary phase E. coli with glucose-fumarate supplementation: different antibiotic concentrations.
Test [2] concerns M. smegmatis. Description: Minimum inhibitory concentration (MIC). Particulars: Mycolicibacterium smegmatis. Type of test: cell-based, Mycobacterium smegmatis.
For test [3], the system named is E. coli K12 strain MG1655. Type of test: cell-based, Escherichia coli. The procedure:
At each time point, cells were also serially diluted in PBS and plated on LB agar plates to determine the CFU/mL at the time of treatment. Time points were taken until cells reached maximum carrying capacity. After 24 hours of treatment, 100 μl of cells from each tube was spun down and re-suspended in PBS on a 96-well plate. Cells were then serially diluted and plated on LB agar plates. The CFU/mL at treatment was normalized by the CFU/mL of stationary phase cells (% max CFU/ml).
An overnight culture of E. coli was diluted 1/10, 1/100, 1/1000, and 1/10000 in non-baffled flasks. […] Cells were spun down and re-suspended in PBS, diluted and plated on LB agar plates to determine CFU/ml.

For test [4], the system named is M. smegmatis. Particulars: exponentially growing cultures (1% maximal density).
A further test deals with S. aureus. Particulars: exponentially growing cultures (1% maximal density).
Test [5] concerns M. smegmatis strain mc^2 155. The experiment in a line: Potentiation assay, glucose-fumarate sensitization of stationary phase culture. Type of test: cell-based, Mycobacterium smegmatis. To be noted: aerated stationary phase; 0.4% fumarate and/or 0.4% glucose.
[6] abbreviates: MOPS rich media, shaking, 1 μg/mL ciprofloxacin.

Values after ≈ are worked out from the molar mass of the structure shown.

Usually MIC stands for the lowest concentration found to suppress growth. Low values mean greater potency, high ones weaker potency.

As to `C[S+](C)[O-]` [DMSO], the “sensitization of stationary phase cultures to ciprofloxacin by the supplement alone” value (shortened to “sensitization … by the supplement alone”) in test [1] (setting [6]) is “none of these electron acceptors alone was able to sensitize cells”.

Consider `CC1(C)S[C@@H]2[C@H](NC(=O)[C@H](N)c3ccccc3)C(=O)N2[C@H]1C(=O)O` [ampicillin], for which the “killing of stationary phase E. coli with glucose-fumarate supplementation” value in test [1] was “did not kill stationary phase cells”.

On to `O=C(O)c1cn(C2CC2)c2cc(N3CCNCC3)c(F)cc2c1=O` [ciprofloxacin], for which, in the test on M. smegmatis [2], the minimum inhibitory concentration (MIC) turned out to be 0.5 µg/mL (≈ 1.51 µM). Moreover, the “killing at 1 μg/mL (100xMIC)” value in test [3] (1 μg/mL ciprofloxacin, low and intermediate cell density) is reported as “maximal killing at low cell density”. Moreover, in test [3] (dose 1000x the MIC, treatment time 24 hours), the “ability to kill the high-density cell population (DDP)” value was “inability of ciprofloxacin to kill a fraction of the cell population”. In addition, the “reduction in persister cells of ΔrelAspoT mutant compared to wildtype” value in test [3] (stationary phase, 1 μg/mL ciprofloxacin, ppGpp0 strain) was 5.5 fold. Further, the “susceptibility of quinolone hypersensitive mutant recB” value in test [3] (ΔrecB mutant, stationary phase) is “hypersensitive in stationary phase”. The “number of viable cells at higher doses” value in the test with M. smegmatis [4] and in the test with S. aureus was “below the limit of detection” each time.

As for `O=C(O)/C=C/C(=O)O` [fumarate], in test [1] (setting [6]), the “sensitization … by the supplement alone” value is on record as “none of these electron acceptors alone was able to sensitize cells”. Further, the “sensitization of high-density cultures to ciprofloxacin by electron acceptor in combination with glucose” value in test [1] (MOPS rich media, shaking, 1 μg/mL ciprofloxacin, with glucose) is “synergistically sensitized”. Further, the “sensitization of stationary phase cultures to ciprofloxacin” value in test [5] is on record as “weakly”.

For `O=[N+]([O-])[O-].[K+]` [nitrate, potassium nitrate], the “sensitization … by the supplement alone” value in test [1] (setting [6]) is listed as “none of these electron acceptors alone was able to sensitize cells”.

Turning to `O=O` [oxygen], the “susceptibility of stationary phase E. coli to ciprofloxacin with supplementation” value in test [1] (static stationary phase culture, 0.4% glucose, bubbled air, oxygen tension 5-6%, 1 μg/mL ciprofloxacin) was “minimal effect”.

On to gentamicin, for which, in test [1], the “killing of stationary phase E. coli with glucose-fumarate supplementation” value is “sensitized”.
